{
  "source": "patent US4197403A",
  "about": "“4-Aminosubstituted imidazo(1,2-A)quinoxalines” (Westwood Pharmaceuticals Inc., priority 1977, dated 1980)",
  "key": {"[1]": {"tested_on": "Trichophyton rubrum (ATCC No. 10218 and 14001)", "assay": "Antifungal activity, agar dilution method: T. rubrum", "type": "cell-based", "conditions": "for Antifungal Activity, Parts Per Million Inhibitions of Fungus and Yeast Species: T. rubrum: agar dilution", "procedure": "(§1) Various compounds of this invention display antifungal and anti-yeast activity.\n(§2) In Table IX below are listed the antifungal activity of a number of compounds encompassed in the present invention. These were determined by the agar dilution method as described in Chapters 2 and 3 of Methods in Microbiology, Vol. 7B, edited by J. R. Norris and D. W. Ribbons, Academic Press, New York, 1972."}, "rat paw edema": {"tested_on": "rat paw edema", "assay": "Rat paw edema assay, oral dosing", "type": "in vivo", "conditions": "four hours after drug; for change in vivo at 100 mg/kg / change in vivo at 400 mg/kg: Rattus norvegicus, 4 h, read-out: % Difference from Control", "procedure": "(§3) The anti-inflammatory activity of representative compounds of this invention was determined by the rat paw edema assay both by local administration (Table XI below) and by oral dosing (Table XII below). For the oral dosing, the procedure of C. A. Winter, E. A. Risley and G. W. Nuss, Proc. Soc. Exp. Biol. Med. 111, 544 (1962) was employed with measurement taken four hours after the drug was administered.\n(§4) Tables XI and XII report the anti-inflammatory activity of the compounds tested as % difference in the edema or swelling as compared with the control. These Tables also give the response in many instances of more than one dose level of the same drug."}, "[2]": {"assay": "Immunosuppressant activity (in words)"}, "Trichophyton ajelloi": {"tested_on": "Trichophyton ajelloi", "assay": "Antifungal activity, agar dilution method: T. ajelloi", "type": "cell-based", "conditions": "Arthroderma uncinatum, read-out: Antifungal Activity, Parts Per Million Inhibitions of Fungus and Yeast Species: T. ajelloi", "procedure": "as §1, §2"}, "[3]": {"tested_on": "Trichophyton mentagrophytes (ATCC No. 8757 and 9129)", "assay": "Antifungal activity, agar dilution method: T. mentagrophytes", "type": "cell-based", "conditions": "ATCC8757, agar dilution, read-out: Antifungal Activity, Parts Per Million Inhibitions of Fungus and Yeast Species: T. mentagrophytes", "procedure": "as §1, §2"}, "[4]": {"tested_on": "carrageenan rat paw edema", "assay": "Rat paw edema assay, local administration", "type": "in vivo", "conditions": "injected directly into paw, 1 μg, read-out: % Difference from Control", "procedure": "as §3\nThe local administration tests were carried out similarly except the irritant (carrageenan) and the test compound were injected simultaneously at time zero.\nas §4"}, "Candida tropicalis": {"tested_on": "Candida tropicalis", "assay": "Antifungal activity, agar dilution method: C. tropicalis", "type": "cell-based", "conditions": "read-out: Antifungal Activity, Parts Per Million Inhibitions of Fungus and Yeast Species: C. tropicalis", "procedure": "as §1, §2"}},
  "data": [
    {"smiles": "CCCCCCCCCCCCCCCCCc1nc2ccccc2n2ccnc12", "note": "[Compound 120]", "values": [
      {"measurement": "Antifungal Activity, Parts Per Million Inhibitions of Fungus and Yeast Species: T. rubrum", "setting": "[1]", "value": 1, "unit": "Parts Per Million"}
    ]},
    {"smiles": "FC(F)(F)c1nc2ccccc2n2ccnc12", "note": "[Compound 122]", "values": [
      {"measurement": "change in vivo at 100 mg/kg", "setting": "rat paw edema; 100 mg/kg", "value": -17, "unit": "%"},
      {"measurement": "change in vivo at 400 mg/kg", "setting": "rat paw edema; 400 mg/kg", "value": -68, "unit": "%"}
    ]},
    {"smiles": "c1ccc(-c2nc3ccccc3n3ccnc23)cc1", "note": "[Compound 131, 4-phenylimidazo[1,2-a]quinoxaline]", "values": [
      {"measurement": "immunosuppressant activity", "setting": "[2]", "value": "only minor activity"}
    ]},
    {"smiles": "O=C(Nc1ccccc1-n1ccnc1)c1cccc(Br)c1", "note": "[Compound 59]", "values": [
      {"measurement": "MIC", "setting": "Trichophyton ajelloi", "value": 100, "unit": "µg/mL"},
      {"measurement": "MIC", "setting": "[3]", "value": 100, "unit": "µg/mL"}
    ]},
    {"smiles": "O=C(Nc1cccc(C(F)(F)F)c1)Nc1ccccc1-n1ccnc1", "note": "[Compound 82]", "values": [
      {"measurement": "MIC", "setting": "Trichophyton ajelloi", "value": 100, "unit": "µg/mL"},
      {"measurement": "MIC", "setting": "[1]; Trichophyton rubrum, ATCC10218, agar dilution, read-out: Antifungal Activity, Parts Per Million Inhibitions of Fungus and Yeast Species: T. rubrum", "value": 100, "unit": "µg/mL"},
      {"measurement": "MIC", "setting": "[3]", "value": 100, "unit": "µg/mL"}
    ]},
    {"smiles": "CCCCCc1nc2ccccc2n2ccnc12", "note": "[Compound 114]", "values": [
      {"measurement": "change in vivo at 0.001 mg", "setting": "[4]", "value": -68.2, "unit": "%"}
    ]},
    {"smiles": "CC(=O)Oc1ccc(-c2nc3ccccc3n3ccnc23)cc1", "note": "[Compound 163]", "values": [
      {"measurement": "MIC", "setting": "Candida tropicalis", "value": 100, "unit": "µg/mL"}
    ]},
    {"smiles": "Cc1cccc(C(=O)Nc2ccccc2-n2ccnc2)c1", "note": "[Compound 36]", "values": [
      {"measurement": "% Difference from Control", "setting": "rat paw edema; 100 mg/kg", "value": -7, "unit": "%"},
      {"measurement": "% Difference from Control", "setting": "rat paw edema; 400 mg/kg", "value": -68, "unit": "%"}
    ]},
    {"smiles": "CCCCCCCCCCCCCCCc1nc2ccccc2n2ccnc12", "note": "[Compound 119]", "values": [
      {"measurement": "Antifungal Activity, Parts Per Million Inhibitions of Fungus and Yeast Species: T. rubrum", "setting": "[1]", "value": 8, "unit": "Parts Per Million"}
    ]},
    {"smiles": "CCCCCCCc1nc2ccccc2n2ccnc12", "note": "[Compound 116]", "values": [
      {"measurement": "MIC", "setting": "Trichophyton ajelloi", "value": 100, "unit": "µg/mL"}
    ]},
    {"smiles": "c1ccc2c(c1)ncc1nccn12", "note": "[Compound 109, imidazo[1,2-a]quinoxaline]", "values": [
      {"measurement": "immunosuppressant activity", "setting": "[2]", "value": "lacks immunosuppressant activity"}
    ]},
    {"smiles": "CC(=O)Nc1ccc(-c2nc3ccccc3n3ccnc23)cc1", "note": "[Compound 155]", "values": [
      {"measurement": "change in vivo at 100 mg/kg", "setting": "rat paw edema; 100 mg/kg", "value": 70, "unit": "%"},
      {"measurement": "change in vivo at 400 mg/kg", "setting": "rat paw edema; 400 mg/kg", "value": -25, "unit": "%"}
    ]}
  ]
}
